Literature values, collected in US6521028B1, “Low hazard corrosion inhibitors and cleaning solutions using quaternary ammonium salts” (HydroChem Industrial Services, Inc., priority 1996, dated 2003).

What was measured:
[1] = not given; remark: listed apart in the source

Structure (SMILES)	LD50 (oral rats)	amount fatal to humans [1]
COC(C)COC(C)CO (stereo not drawn) [dipropylene glycol methyl ether]	5130 mg/kg	
CC(C)O [Isopropanol, isopropanol]		≥ 100 mL
NC(N)=S [thiourea]	125 mg/kg	
